Results from patent US20020137929A1, “1 - (3-heterocyclylphenyl) isothiourea, -isourea, -guanidine and -amidine herbicidal agents” (Intellectual Property Department, BASF Aktiengesellschaft, priority 1998, published 2002).

What was measured:
CYPSE (Flatsedge) = test: Preemergence weed control under flooded paddy conditions; assay type: in vivo, Cyperus serotinus; conditions: rated 3-4 weeks after treatment
In short: (§1)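 Visual injury scored 0-9 against control three to four weeks post-treatment, greenhouse-grown. Application: acetone/water (50/50) solutions dosed directly into flood water (1.5-3 cm over silt loam, planted top 0.5 cm), roughly 0.0313 to 0.500 kg/ha active ingredient.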

GALAP (Galium) [1] = test: Postemergence herbicidal evaluation; assay type: in vivo, Galium aparine; conditions: postemergence
In short: (§2)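 Visual 0–9 rating versus control (stand, vigor, malformation, size, chlorosis, overall appearance), taken four to five weeks post-spray. Two-week-old seedlings received roughly 0.0156–0.500 kg/ha active in acetone/water (50/50) with 0.5% TWEEN 20 via nozzle at 40 psi.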

[2] = test system: SAGPY (Arrowhead (Pygmaea)); test: Preemergence weed control under flooded paddy conditions; assay type: in vivo, Sagittaria pygmaea; conditions: rated 3-4 weeks after treatment
In short: as §1

ORYSAT (Rice, Tebonnet) = test: Postemergence herbicidal evaluation; assay type: in vivo, Oryza sativa, (L.) Tebonnet; conditions: postemergence
In short: as §2

AMBEL (Ragweed, Common) = test: Postemergence herbicidal evaluation; assay type: in vivo, Ambrosia artemisifolia; conditions: postemergence
In short: as §2

ZEAMX (Corn, Field) = test: Preemergence herbicidal evaluation; assay type: in vivo, Zea mays; conditions: rated 4-5 weeks after treatment
In short: (§3)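 Each species is sown separately in potting soil over roughly an inch of soil before any emergence. The soil surface then receives an aqueous acetone spray delivering about 0.0156 to 0.500 kg/ha of compound. After four to five weeks, injury is scored from 0 to 9 relative to a control.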

GALAP (Galium) [3] = test: Preemergence herbicidal evaluation; assay type: in vivo, Galium aparine; conditions: rated 4-5 weeks after treatment
In short: as §3

CYPIR (Rice Flatsedge) = test: Preemergence weed control under flooded paddy conditions; assay type: in vivo, Cyperus iria; conditions: rated 3-4 weeks after treatment
In short: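 First, seeds or propagules go into the top 0.5 cm of silt loam; next, water is held 1.5 to 3 cm over the soil; then compound (50/50 acetone/water) is pipetted into it at about 0.0313 to 0.500 kg/ha; finally plants are rated visually 0-9 after three to four weeks.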

[4] = test system: GLXMAW (Soybean, Williams); test: Postemergence herbicidal evaluation; assay type: in vivo, Glycine max, (L.) Merr. cv Williams; conditions: postemergence
In short: as §2

ECHCG (Barnyardgrass) = test: Postemergence herbicidal evaluation; assay type: in vivo, Echinochloa crus-galli; conditions: postemergence
In short: as §2

CASOB (Sicklepod) [5] = test: Preemergence herbicidal evaluation; assay type: in vivo, Cassia obtusifolia; conditions: rated 4-5 weeks after treatment
In short: as §3

SETVI (Foxtail, Green) = test: Postemergence herbicidal evaluation; assay type: in vivo, Setaria viridis; conditions: postemergence
In short: as §2

CASOB (Sicklepod) [6] = test: Postemergence herbicidal evaluation; assay type: in vivo, Cassia obtusifolia; conditions: postemergence
In short: as §2

[7] = test system: CHEAL (Lambsquarters, Common); test: Postemergence herbicidal evaluation; assay type: in vivo, Chenopodium album; conditions: postemergence
In short: as §2

SMILES: CCOC(=O)CN1C(=O)C(SC)SC1=Nc1cc(-n2c(=O)cc(C(F)(F)F)n(C)c2=O)c(F)cc1Cl (stereo not drawn) [Compound 125, Ethyl 2-{{2-chloro-5-[3,6-dihydro-3-methyl-2,6-dioxo-4-(trifluoromethyl)-1(2H)-pyrimidinyl]-4-fluorophenyl}imino}-5-(methylthio)-4-oxo-3-thiazolidineacetate]
- herbicidal effect rating, CYPSE (CYPSE (Flatsedge); 0.0313 kg/ha): 2.0
- herbicidal effect rating, CYPSE (CYPSE (Flatsedge); 0.0625 kg/ha): 4.0
- herbicidal effect rating, CYPSE (CYPSE (Flatsedge); 0.1250 kg/ha): 9.0
- herbicidal effect rating, CYPSE (CYPSE (Flatsedge); 0.2500 kg/ha): 9.0
- herbicidal rating GALAP (GALAP (Galium) [1]; rate 0.0156 kg/ha): 1.0
- herbicidal rating GALAP (GALAP (Galium) [1]; rate 0.0313 kg/ha): 2.0
- herbicidal rating GALAP (GALAP (Galium) [1]; rate 0.0625 kg/ha): 5.0
- herbicidal effect rating, SAGPY ([2]; 0.0313 kg/ha): 3.0
- herbicidal effect rating, SAGPY ([2]; 0.0625 kg/ha): 4.0
- herbicidal effect rating, SAGPY ([2]; 0.1250 kg/ha): 4.0
- herbicidal effect rating, SAGPY ([2]; 0.2500 kg/ha): 9.0
- herbicidal rating ORYSAT (ORYSAT (Rice, Tebonnet); rate 0.0156 kg/ha): 3.3
- herbicidal rating ORYSAT (ORYSAT (Rice, Tebonnet); rate 0.0313 kg/ha): 4.0
- herbicidal rating ORYSAT (ORYSAT (Rice, Tebonnet); rate 0.0625 kg/ha): 3.7
- herbicidal rating AMBEL (AMBEL (Ragweed, Common); rate 0.0156 kg/ha): 3.0
- herbicidal rating AMBEL (AMBEL (Ragweed, Common); rate 0.0313 kg/ha): 8.0
- herbicidal rating AMBEL (AMBEL (Ragweed, Common); rate 0.0625 kg/ha): 8.0
- Preemergence herbicidal rating ZEAMX (ZEAMX (Corn, Field); rate 0.0156 kg/ha): 0.0
- Preemergence herbicidal rating ZEAMX (ZEAMX (Corn, Field); rate 0.0313 kg/ha): 0.0
- Preemergence herbicidal rating ZEAMX (ZEAMX (Corn, Field); rate 0.0625 kg/ha): 3.0
- Preemergence herbicidal rating ZEAMX (ZEAMX (Corn, Field); rate 0.1250 kg/ha): 6.0
- Preemergence herbicidal rating ZEAMX (ZEAMX (Corn, Field); rate 0.2500 kg/ha): 7.0
- Preemergence herbicidal rating ZEAMX (ZEAMX (Corn, Field); rate 0.5000 kg/ha): 7.0
- Preemergence herbicidal rating GALAP (GALAP (Galium) [3]; rate 0.0156 kg/ha): 0.0
- Preemergence herbicidal rating GALAP (GALAP (Galium) [3]; rate 0.0313 kg/ha): 0.0
- Preemergence herbicidal rating GALAP (GALAP (Galium) [3]; rate 0.0625 kg/ha): 0.0
- Preemergence herbicidal rating GALAP (GALAP (Galium) [3]; rate 0.1250 kg/ha): 1.0
- Preemergence herbicidal rating GALAP (GALAP (Galium) [3]; rate 0.2500 kg/ha): 7.0
- Preemergence herbicidal rating GALAP (GALAP (Galium) [3]; rate 0.5000 kg/ha): 9.0
- herbicidal effect rating, CYPIR (CYPIR (Rice Flatsedge); 0.0313 kg/ha): 3.0
- herbicidal effect rating, CYPIR (CYPIR (Rice Flatsedge); 0.0625 kg/ha): 6.0
- herbicidal effect rating, CYPIR (CYPIR (Rice Flatsedge); 0.1250 kg/ha): 7.0
- herbicidal effect rating, CYPIR (CYPIR (Rice Flatsedge); 0.2500 kg/ha): 9.0
- herbicidal rating GLXMAW ([4]; rate 0.0156 kg/ha): 7.3
- herbicidal rating GLXMAW ([4]; rate 0.0313 kg/ha): 8.0
- herbicidal rating GLXMAW ([4]; rate 0.0625 kg/ha): 8.7
- herbicidal rating ECHCG (ECHCG (Barnyardgrass); rate 0.0156 kg/ha): 1.0
- herbicidal rating ECHCG (ECHCG (Barnyardgrass); rate 0.0313 kg/ha): 2.0
- herbicidal rating ECHCG (ECHCG (Barnyardgrass); rate 0.0625 kg/ha): 3.0
- Preemergence herbicidal rating CASOB (CASOB (Sicklepod) [5]; rate 0.0156 kg/ha): 0.0
- Preemergence herbicidal rating CASOB (CASOB (Sicklepod) [5]; rate 0.0313 kg/ha): 1.0
- Preemergence herbicidal rating CASOB (CASOB (Sicklepod) [5]; rate 0.0625 kg/ha): 3.0
- Preemergence herbicidal rating CASOB (CASOB (Sicklepod) [5]; rate 0.1250 kg/ha): 2.0
- Preemergence herbicidal rating CASOB (CASOB (Sicklepod) [5]; rate 0.2500 kg/ha): 9.0
- Preemergence herbicidal rating CASOB (CASOB (Sicklepod) [5]; rate 0.5000 kg/ha): 9.0
- herbicidal rating SETVI (SETVI (Foxtail, Green); rate 0.0156 kg/ha): 2.0
- herbicidal rating SETVI (SETVI (Foxtail, Green); rate 0.0313 kg/ha): 5.0
- herbicidal rating SETVI (SETVI (Foxtail, Green); rate 0.0625 kg/ha): 5.0
- herbicidal rating CASOB (CASOB (Sicklepod) [6]; rate 0.0156 kg/ha): 1.0
- herbicidal rating CASOB (CASOB (Sicklepod) [6]; rate 0.0313 kg/ha): 2.0
- herbicidal rating CASOB (CASOB (Sicklepod) [6]; rate 0.0625 kg/ha): 2.0
- herbicidal rating CHEAL ([7]; rate 0.0156 kg/ha): 3.0
- herbicidal rating CHEAL ([7]; rate 0.0313 kg/ha): 9.0
- herbicidal rating CHEAL ([7]; rate 0.0625 kg/ha): 9.0
